Literature values as cited in US10729778B2, “Carrier-linked treprostinil prodrugs” (Ascendis Pharma A/S, priority 2011, dated 2020).

Settings: background statement

half-life: 4 h
Structure (SMILES): CCCCC[C@H](O)CC[C@@H]1[C@H]2Cc3cccc(OCC(=O)O)c3C[C@H]2C[C@H]1O [Treprostinil]
